ChEMBL document CHEMBL3217553, “Binding properties and biological characterization of new sugar-derived Ras ligands” (Medchemcomm, 2011)
Calls of active or inactive are those of the source. No cut-off for these calls is given here.

What was measured:
[1] = molecular target: T1, GTPase HRas (Homo sapiens, UniProt P01112); experiment: Binding affinity to [15N]-H-Ras (1 to 166) (unknown origin) by NMR spectrometry
Target sequence in this assay (P01112 whole entry): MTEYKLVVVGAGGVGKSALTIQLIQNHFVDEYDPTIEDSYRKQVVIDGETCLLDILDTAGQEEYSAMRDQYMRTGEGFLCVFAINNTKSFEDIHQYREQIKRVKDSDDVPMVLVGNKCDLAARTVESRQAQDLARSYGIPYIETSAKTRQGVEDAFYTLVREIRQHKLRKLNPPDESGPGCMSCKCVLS

[2] = molecular target: T1, GTPase HRas; experiment: Inhibition of recombinant N-terminal His-tagged H-Ras (unknown origin) expressed in Escherichia coli M15 assessed as inhibition of GEF-mediated nucleotide exchange after 300 secs by luminescence spectrophotometry
Target sequence in this assay (P01112 whole entry): as above

[3] = Inhibition of cell proliferation in mouse NIH/3T3 cells after 24 to 72 hrs by coulter counting analysis; assay type: cell-based; details: nih3t3
[4] = tested on: NIH3T3; experiment: Inhibition of cell proliferation in mouse NIH/3T3 cells expressing K-RAS after 24 to 72 hrs by coulter counting analysis; assay type: functional, cell-based
[5] = Inhibition of cell proliferation in mouse NIH/3T3 cells at 100 uM after 24 to 72 hrs by coulter counting analysis; assay type: cell-based; details: nih3t3, 100 µM
[6] = tested on: NIH3T3; experiment: Inhibition of cell proliferation in mouse NIH/3T3 cells expressing K-RAS at 100 uM after 24 to 72 hrs by coulter counting analysis; assay type: functional, cell-based
[7] = organism: Mus musculus; experiment: Inhibition of Ras in mouse NIHRAS cells assessed as reduction of phosphorylated MAPK level at 250 uM after 24 hrs by sandwich ELISA; assay type: cell-based
[8] = molecular target: T1, GTPase HRas; experiment: Inhibition of recombinant N-terminal His-tagged H-Ras (unknown origin) expressed in Escherichia coli M15 assessed as inhibition of human Sos1-mediated nucleotide exchange after 300 secs by luminescence spectrophotometry

Row | Kd [1] | IC50 [2] | IC50 [8] | inhibition [8] | Compound | inhibition (INH) [3] | inhibition [4] | Activity [5] | inhibition [6] | inhibition [7]
1 | 21.4 µM | 320 µM |  |  | Oc1ccc(CNOCc2ccccc2)cc1O |  |  |  |  | 
2 | 7.8 µM | 100 µM |  |  | OC[C@H]1O[C@@H](O[C@H]2[C@H](O)[C@@H](O)C(N(Cc3ccc(O)c(O)c3)OCc3ccccc3)O[C@@H]2CO)[C@H](O)[C@@H](O)[C@H]1O (stereo partly drawn) | Dose-dependent effect | Dose-dependent effect | Toxic | Active | 
3 | 9.5 µM | 80 µM |  |  | OC[C@H]1OC(N(Cc2ccc(O)c(O)c2)OCc2ccccc2)[C@H](O)[C@@H](O)[C@@H]1O (stereo partly drawn) | Dose-dependent effect | Dose-dependent effect | Toxic | Active | 
4 | 5.5 µM | 80 µM | 122 µM | Dose-dependent effect | CC(=O)N[C@H]1C(N(Cc2ccc(O)c(O)c2)OCc2ccccc2)O[C@H](CO)[C@@H](O)[C@@H]1O (stereo partly drawn) | Dose-dependent effect | Dose-dependent effect | Toxic | Active | Active
